21 compounds from patent publication US6867320B2, “Substituted phenylalkanoic acid derivatives and use thereof” (Asahi Kasei Pharma Corporation, priority 2002, dated 2005) can be followed below.

The test system of assay [1] is PGE2 production from IL-1β-stimulated MG-63 cells. Briefly: Suppressing action on PGE2 production from IL-1β-stimulated MG-63 cells. The format is cell-based. The conditions noted are these: Homo sapiens, IL-1β 1 ng/ml, 18 hours, read-out: PGE2 production suppression ratio. The essentials:
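Human osteosarcoma MG-63 cells (2×10^4/well) switched to 0.5% FBS medium, treated with compound, then stimulated with IL-1β at 1 ng/ml final for 18 h. Supernatant PGE2 measured by EIA; suppression ratio calculated against stimulated and unstimulated wells.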

Assay [2] relates to zymosan-stimulated footpad edema. Briefly: Mouse zymosan-stimulated footpad edema reaction. It counts as in vivo. The following applies: ICR female mice, oral 0.1 to 500 mg/kg, compared with positive control group. The essentials: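 Female ICR mice (6–7 weeks, n=8) dosed orally at 0.1 to 500 mg/kg in 0.5% methylcellulose; 1 h later zymosan (1 mg/ml, 0.02 ml) injected s.c. into right hind footpad. Edema volume at 1 and 2 h gave AUC to 2 h; suppression (%) calculated against positive control AUC.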

The test system of assay [3] is IgE-stimulated footpad edema. Briefly: Mouse IgE-stimulated footpad edema reaction. It counts as in vivo. The conditions noted are these: C57BL/6 male mice, oral 0.1 to 500 mg/kg, compared with positive control group. Here is the method:
4. Suppressing Effect on Mouse IgE-stimulated Footpad Edema Reaction
Suppression on footpad edema caused by IgE antibody as an allergic stimulant was studied by the following method. Groups of C57BL/6 male mice (9- to 11-week old) each consisting of five mice were used for the test. Anti-DNP-BSA IgE serum was subcutaneously administered in a volume of 20 μl to right hind leg footpad of each mouse one day before the test. A test compound was suspended or dissolved in purified water containing 0.5% methylcellulose and orally administered to the test animals at 0.1 to 500 mg/0.2 ml/kg. To the control group, purified water containing 0.5% methylcellulose was administered in a similar manner, which was not added with the test compound. Two hours after the administration of the test compound, 0.2 ml of a solution of DNP-BSA dissolved in physiological saline (Otsuka Pharmaceutical) at 2.5 μg/ml was intravenously administered. The thickness of right hind leg footpad was measured by using a digital thickness gauge (MITSUTOYO) 10, 15, 20, and 30 minutes after the administration of DNP-BSA. A difference of the thickness of footpad measured above and the thickness before the administration of the test compound measured beforehand was regarded as a thickness of edema.
For the thickness of the edema at 10, 15, 20 and 30 minutes after the DNP-BSA administration, a graph was prepared indicating time in abscissa and the edema thickness in ordinate, and edema thickness AUC […] was obtained by calculation according to the following equation. Edema thickness AUC (mm·minute)=1/2×10×A+5×(A+B)/2+5×(B+C)/2+10×(C+D)/2 • A: Edema thickness 10 minutes after DNP-BSA administration • B: Edema thickness 15 minutes after DNP-BSA administration • C: Edema thickness 20 minutes after DNP-BSA administration • D: Edema thickness 30 minutes after DNP-BSA administration
A suppressing ratio on edema of a test compound was obtained by calculation in accordance with the following equation. Edema suppression ratio (%)=[1−B/A]×100 • A: Edema thickness AUC of positive control • B: Edema thickness AUC of test compound administered group (2) Measurement Results

With `O=C(O)CCc1ccc(OCc2cccc(F)c2)c(-c2ccc3ccccc3c2)c1` [Compound 033, 3-[4-(3-fluorophenylmethyloxy)-3-(naphthalen-2-yl)phenyl]propionic acid], the inhibition at 0.4 µM in assay [1] was not below 50%. The “suppression of footpad edema caused by zymosan” value (shortened to “suppression … by zymosan”) in assay [2] is recorded as “suppressed footpad edema”. Also, in assay [3], the “suppression of footpad edema caused by IgE stimulation” value (“suppression … by IgE stimulation” for short) was “suppressed the footpad edema”.

On to `O=C(O)CCc1ccc(OCCc2ccccc2)c(-c2ccc3ccccc3c2)c1` [Compound 051, 3-[3-(naphthalen-2-yl)-4-(2-phenylethyloxy)phenyl]propionic acid], for which the inhibition at 0.4 µM in assay [1] is not below 50%. The “suppression … by IgE stimulation” value in assay [3] was “suppressed the footpad edema”.

As to `O=C(O)CCc1ccc(OCCc2cccc(F)c2)c(-c2ccc3ccccc3c2)c1` [Compound 055, 3-{4-[2-(3-fluorophenyl)ethyloxy]-3-(naphthalen-2-yl)phenyl}propionic acid], in assay [1], the inhibition at 0.4 µM was not below 50%. The “suppression … by zymosan” value in assay [2] is “suppressed footpad edema”. Also, in assay [3], the “suppression … by IgE stimulation” value is “suppressed the footpad edema”.

With `O=C(O)CCc1ccc(OCCc2ccc(F)cc2)c(-c2ccc3ccccc3c2)c1` [Compound 057, 3-{4-[2-(4-fluorophenyl)ethyloxy]-3-(naphthalen-2-yl)phenyl}propionic acid], in assay [1], the inhibition at 0.4 µM is not below 50%. The “suppression … by zymosan” value in assay [2] is recorded as “suppressed footpad edema”. Also, the “suppression … by IgE stimulation” value in assay [3] is listed as “suppressed the footpad edema”.

For the compound `O=C(O)CCc1ccc(OCC2CCCCC2)c(-c2cccc3[nH]ccc23)c1` [Compound 116, 3-[4-cyclohexylmethyloxy-3-(1H-indol-4-yl)phenyl]propionic acid], in assay [1], the inhibition at 0.4 µM was not below 50%. In assay [2], the “suppression … by zymosan” value is reported as “suppressed footpad edema”. For the same compound, the “suppression … by IgE stimulation” value in assay [3] was “suppressed the footpad edema”.

For `Cn1ccc2c(-c3cc(CCC(=O)O)ccc3OC3CCCCC3)cccc21` [Compound 126, 3-[4-cyclohexyloxy-3-(1-methyl-1H-indol-4-yl)phenyl]propionic acid], in assay [1], the inhibition at 0.4 µM was not below 50%. Further, the “suppression … by zymosan” value in assay [2] is reported as “suppressed footpad edema”. Also, the “suppression … by IgE stimulation” value in assay [3] is listed as “suppressed the footpad edema”.

Turning to `O=C(O)CCc1ccc(OCc2ccccc2-c2ccccc2)c(-c2ccc3[nH]ccc3c2)c1` [Compound 140, 3-{4-[(biphenyl-2-yl)methyloxy]-3-(1H-indol-5-yl)phenyl}propionic acid], in assay [1], the inhibition at 0.4 µM is not below 50%. Also, in assay [2], the “suppression … by zymosan” value is listed as “suppressed footpad edema”. Moreover, the “suppression … by IgE stimulation” value in assay [3] is recorded as “suppressed the footpad edema”.

With `O=C(O)CCc1ccc(OCc2ccc(F)cc2F)c(-c2ccc3[nH]ccc3c2)c1` [Compound 156, 3-[4-(2,4-difluorophenylmethyloxy)-3-(1H-indol-5-yl)phenyl]propionic acid], in assay [1], the inhibition at 0.4 µM is not below 50%. Also, the “suppression … by IgE stimulation” value in assay [3] is listed as “suppressed the footpad edema”.

With `O=C(O)CCc1ccc(OCc2ccc(F)c(F)c2)c(-c2ccc3[nH]ccc3c2)c1` [Compound 158, 3-[4-(3,4-difluorophenylmethyloxy)-3-(1H-indol-5-yl)phenyl]propionic acid], in assay [1], the inhibition at 0.4 µM was not below 50%. The “suppression … by IgE stimulation” value in assay [3] is listed as “suppressed the footpad edema”.

With `O=C(O)CCc1ccc(OCc2ccc(Br)cc2F)c(-c2ccc3[nH]ccc3c2)c1` [Compound 168], the “suppression … by zymosan” value in assay [2] is “suppressed footpad edema”. The “suppression … by IgE stimulation” value in assay [3] is “suppressed the footpad edema”.

Take `CCC(CC)COc1ccc(CCC(=O)O)cc1-c1ccc2[nH]ccc2c1` [Compound 183, 3-[4-(2-ethylbutyloxy)-3-(1H-indol-5-yl)phenyl]propionic acid]: in assay [1], the inhibition at 0.4 µM was not below 50%. Moreover, the “suppression … by zymosan” value in assay [2] was “suppressed footpad edema”. In addition, the “suppression … by IgE stimulation” value in assay [3] is recorded as “suppressed the footpad edema”.

As to `O=C(O)CCc1ccc(OCc2ccc3ccccc3c2)c(-c2ccc3[nH]ccc3c2)c1` [Compound 192, 3-{3-(1H-indol-5-yl)-4-[(Naphthalen-2-yl)methyloxy]phenyl}propionic acid], the inhibition at 0.4 µM in assay [1] was not below 50%. For the same compound, in assay [3], the “suppression … by IgE stimulation” value is recorded as “suppressed the footpad edema”.

For the compound `Cc1ccccc1CCOc1ccc(CCC(=O)O)cc1-c1ccc2[nH]ccc2c1` [Compound 200, 3-{3-(1H-indol-5-yl)-4-[2-(2-methylphenyl)ethyloxy]phenyl}propionic acid], the inhibition at 0.4 µM in assay [1] was not below 50%. The “suppression … by zymosan” value in assay [2] was “suppressed footpad edema”. The “suppression … by IgE stimulation” value in assay [3] is listed as “suppressed the footpad edema”.

`Cc1cccc(CCOc2ccc(CCC(=O)O)cc2-c2ccc3[nH]ccc3c2)c1` [Compound 202, 3-{3-(1H-indol-5-yl)-4-[2-(3-methylphenyl)ethyloxy]phenyl}propionic acid]: the inhibition at 0.4 µM in assay [1] is not below 50%. In addition, the “suppression … by zymosan” value in assay [2] is “suppressed footpad edema”. Moreover, the “suppression … by IgE stimulation” value in assay [3] is “suppressed the footpad edema”.

Turning to `COc1ccccc1CCOc1ccc(CCC(=O)O)cc1-c1ccc2[nH]ccc2c1` [Compound 205, 3-{3-(1H-indol-5-yl)-4-[2-(2-methoxyphenyl)ethyloxy]phenyl}propionic acid], the inhibition at 0.4 µM in assay [1] was not below 50%. Besides, the “suppression … by zymosan” value in assay [2] was “suppressed footpad edema”. Besides, the “suppression … by IgE stimulation” value in assay [3] is recorded as “suppressed the footpad edema”.

On to `O=C(O)CCc1ccc(OCCc2ccccc2Cl)c(-c2ccc3[nH]ccc3c2)c1` [Compound 209, 3-{4-[2-(2-chlorophenyl)ethyloxy]-3-(1H-indol-5-yl)phenyl}propionic acid], for which the inhibition at 0.4 µM in assay [1] is not below 50%. Moreover, the “suppression … by zymosan” value in assay [2] is “suppressed footpad edema”. For the same compound, the “suppression … by IgE stimulation” value in assay [3] is given as “suppressed the footpad edema”.

Take `O=C(O)CCc1ccc(OCCc2ccc(Cl)cc2)c(-c2ccc3[nH]ccc3c2)c1` [Compound 213, 3-{4-[2-(4-chlorophenyl)ethyloxy]-3-(1H-indol-5-yl)phenyl}propionic acid]: the inhibition at 0.4 µM in assay [1] is not below 50%. Besides, the “suppression … by IgE stimulation” value in assay [3] is reported as “suppressed the footpad edema”.

For `O=C(O)CCc1ccc(OCCOc2ccc(Cl)cc2)c(-c2ccc3[nH]ccc3c2)c1` [Compound 226, 3-{4-[2-(4-chlorophenyloxy)ethyloxy]-3-(1H-indol-5-yl)phenyl}propionic acid], the inhibition at 0.4 µM in assay [1] was not below 50%. In addition, the “suppression … by zymosan” value in assay [2] is “suppressed footpad edema”. Moreover, the “suppression … by IgE stimulation” value in assay [3] is listed as “suppressed the footpad edema”.

Consider `O=C(O)CCc1ccc(OCCSc2ccccc2)c(-c2ccc3[nH]ccc3c2)c1` [Compound 228, 3-{3-(1H-indol-5-yl)-4-[2-(phenylthio)ethyloxy]phenyl}propionic acid], for which the inhibition at 0.4 µM in assay [1] was not below 50%. Moreover, in assay [2], the “suppression … by zymosan” value is listed as “suppressed footpad edema”. Also, the “suppression … by IgE stimulation” value in assay [3] is on record as “suppressed the footpad edema”.

`Nc1cc(CCC(=O)O)cc(-c2ccc3[nH]ccc3c2)c1OCC1CCCC1` [Compound 266, 3-[3-amino-4-cyclopentylmethyloxy-5-(1H-indol-5-yl)phenyl]propionic acid]: the inhibition at 0.4 µM in assay [1] was not below 50%. For the same compound, the “suppression … by IgE stimulation” value in assay [3] is given as “suppressed the footpad edema”.

In the case of `O=C(O)CCc1ccc(OCc2ccccc2)c(-c2ccc3[nH]ccc3c2)c1` [Compound 325, 3-[4-benzyloxy-3-(1H-indol-5-yl)phenyl]propionic acid], in assay [1], the inhibition at 0.4 µM was not below 50%. In assay [3], the “suppression … by IgE stimulation” value is “suppressed the footpad edema”.
